From ChEMBL document CHEMBL3525960, “Role of catechol-O-methyltransferase in the disposition of luteolin in rats” (Drug Metab Dispos, 2011)

Experiments:
[1] = Half life in Sprague-Dawley rat at 6.5 mg/kg, iv co-treated with COMT inhibitor entacapone; type: ADME, organism-based; parameters: dose 6.5 mg/kg, route intravenous; conditions: in vivo
Small intestine [2] = test: Drug metabolism in Sprague-Dawley rat small intestine homogenate assessed as 3'-O-methylated luteolin at 20 uM after 20 to 60 mins in presence of COMT inhibitor entacapone; type: ADME, tissue-based; conditions: tissue homogenate
[3] = Drug recovery in Sprague-Dawley rat urine assessed as retention time at 6.5 mg/kg, iv by reverse-phase HPLC method; type: ADME, organism-based; parameters: dose 6.5 mg/kg, route intravenous; conditions: in vivo
Small intestine [4] = test: Drug metabolism in Sprague-Dawley rat small intestine homogenate assessed as 3'-O-methylated luteolin at 20 uM after 20 to 60 mins; type: ADME, tissue-based; conditions: tissue homogenate
Small intestine [5] = test: Drug metabolism in Sprague-Dawley rat small intestine homogenate assessed as 4'-O-methylated luteolin at 20 uM after 20 to 60 mins in presence of COMT inhibitor entacapone; type: ADME, tissue-based; conditions: tissue homogenate
Liver [6] = test: Drug metabolism in Sprague-Dawley rat liver homogenate assessed as 3'-O-methylated luteolin at 20 uM after 20 to 60 mins; type: ADME, tissue-based; conditions: tissue homogenate
Kidney [7] = test: Drug metabolism in Sprague-Dawley rat kidney homogenate assessed as 3'-O-methylated luteolin at 20 uM after 20 to 60 mins; type: ADME, tissue-based; conditions: tissue homogenate
[8] = Drug metabolism in Sprague-Dawley rat erythrocytes homogenate assessed as 3'-O-methylated luteolin at 20 uM after 20 to 60 mins in presence of COMT inhibitor entacapone; type: ADME, cell-based; conditions: erythrocyte
[9] = AUC (0 to infinity) in Sprague-Dawley rat at 6.5 mg/kg, iv; type: ADME, organism-based; parameters: time infinity, dose 6.5 mg/kg, route intravenous; conditions: plasma
[10] = Apparent permeability in human Caco2 cells; type: ADME, cell-based; conditions: caco-2
Liver [11] = test: Drug metabolism in Sprague-Dawley rat liver homogenate assessed as 4'-O-methylated luteolin at 20 uM after 20 to 60 mins in presence of COMT inhibitor entacapone; type: ADME, tissue-based; conditions: tissue homogenate
[12] = Drug metabolism in Sprague-Dawley rat erythrocytes homogenate assessed as 4'-O-methylated luteolin at 20 uM after 20 to 60 mins; type: ADME, cell-based; conditions: erythrocyte
Lung [13] = test: Drug metabolism in Sprague-Dawley rat lung homogenate assessed as 4'-O-methylated luteolin at 20 uM after 20 to 60 mins in presence of COMT inhibitor entacapone; type: ADME, tissue-based; conditions: tissue homogenate
[14] = Clearance in Sprague-Dawley rat at 6.5 mg/kg, iv; type: ADME, organism-based; parameters: dose 6.5 mg/kg, route intravenous; conditions: in vivo
[15] = Drug absorption in human Caco2 cells; type: ADME, cell-based; conditions: caco-2
[16] = AUC (0 to t) in Sprague-Dawley rat at 6.5 mg/kg, iv; type: ADME, organism-based; parameters: dose 6.5 mg/kg, route intravenous; conditions: plasma
[17] = Mean residence time (0 to t) in Sprague-Dawley rat at 6.5 mg/kg, iv; type: ADME, organism-based; parameters: dose 6.5 mg/kg, route intravenous; conditions: in vivo
Lung [18] = test: Drug metabolism in Sprague-Dawley rat lung homogenate assessed as 4'-O-methylated luteolin at 20 uM after 20 to 60 mins; type: ADME, tissue-based; conditions: tissue homogenate
Kidney [19] = test: Drug metabolism in Sprague-Dawley rat kidney homogenate assessed as 4'-O-methylated luteolin at 20 uM after 20 to 60 mins in presence of COMT inhibitor entacapone; type: ADME, tissue-based; conditions: tissue homogenate
[20] = AUC (0 to t) in Sprague-Dawley rat at 6.5 mg/kg, iv co-treated with COMT inhibitor entacapone; type: ADME, organism-based; parameters: dose 6.5 mg/kg, route intravenous; conditions: plasma
[21] = Drug excretion in Sprague-Dawley rat urine at 6.5 mg/kg, iv after 24 hrs; type: ADME, organism-based; parameters: dose 6.5 mg/kg, route intravenous; conditions: read-out: Drug excretion
Liver [22] = test: Drug metabolism in Sprague-Dawley rat liver homogenate assessed as 4'-O-methylated luteolin at 20 uM after 20 to 60 mins; type: ADME, tissue-based; conditions: tissue homogenate
[23] = Half life in Sprague-Dawley rat at 6.5 mg/kg, iv; type: ADME, organism-based; parameters: dose 6.5 mg/kg, route intravenous; conditions: in vivo
[24] = Drug metabolism in Sprague-Dawley rat erythrocytes homogenate assessed as 4'-O-methylated luteolin at 20 uM after 20 to 60 mins in presence of COMT inhibitor entacapone; type: ADME, cell-based; conditions: erythrocyte
[25] = Drug metabolism in Sprague-Dawley rat erythrocytes homogenate assessed as 3'-O-methylated luteolin at 20 uM after 20 to 60 mins; type: ADME, cell-based; conditions: erythrocyte
[26] = Mean residence time (0 to infinity) in Sprague-Dawley rat at 6.5 mg/kg, iv; type: ADME, organism-based; parameters: dose 6.5 mg/kg, route intravenous; conditions: in vivo
[27] = Mean residence time (0 to t) in Sprague-Dawley rat at 6.5 mg/kg, iv co-treated with COMT inhibitor entacapone; type: ADME, organism-based; parameters: dose 6.5 mg/kg, route intravenous; conditions: in vivo
[28] = Volume of distribution in Sprague-Dawley rat at 6.5 mg/kg, iv; type: ADME, organism-based; parameters: dose 6.5 mg/kg, route intravenous; conditions: in vivo
[29] = Clearance in Sprague-Dawley rat at 6.5 mg/kg, iv co-treated with COMT inhibitor entacapone; type: ADME, organism-based; parameters: dose 6.5 mg/kg, route intravenous; conditions: in vivo
[30] = Mean residence time (0 to infinity) in Sprague-Dawley rat at 6.5 mg/kg, iv co-treated with COMT inhibitor entacapone; type: ADME, organism-based; parameters: dose 6.5 mg/kg, route intravenous; conditions: in vivo
Lung [31] = test: Drug metabolism in Sprague-Dawley rat lung homogenate assessed as 3'-O-methylated luteolin at 20 uM after 20 to 60 mins in presence of COMT inhibitor entacapone; type: ADME, tissue-based; conditions: tissue homogenate
[32] = AUC (0 to infinity) in Sprague-Dawley rat at 6.5 mg/kg, iv co-treated with COMT inhibitor entacapone; type: ADME, organism-based; parameters: time infinity, dose 6.5 mg/kg, route intravenous; conditions: plasma
Kidney [33] = test: Drug metabolism in Sprague-Dawley rat kidney homogenate assessed as 4'-O-methylated luteolin at 20 uM after 20 to 60 mins; type: ADME, tissue-based; conditions: tissue homogenate
Small intestine [34] = test: Drug metabolism in Sprague-Dawley rat small intestine homogenate assessed as 4'-O-methylated luteolin at 20 uM after 20 to 60 mins; type: ADME, tissue-based; conditions: tissue homogenate
[35] = Volume of distribution in Sprague-Dawley rat at 6.5 mg/kg, iv co-treated with COMT inhibitor entacapone; type: ADME, organism-based; parameters: dose 6.5 mg/kg, route intravenous; conditions: in vivo
Kidney [36] = test: Drug metabolism in Sprague-Dawley rat kidney homogenate assessed as 3'-O-methylated luteolin at 20 uM after 20 to 60 mins in presence of COMT inhibitor entacapone; type: ADME, tissue-based; conditions: tissue homogenate
Liver [37] = test: Drug metabolism in Sprague-Dawley rat liver homogenate assessed as 3'-O-methylated luteolin at 20 uM after 20 to 60 mins in presence of COMT inhibitor entacapone; type: ADME, tissue-based; conditions: tissue homogenate
[38] = Drug excretion in Sprague-Dawley rat urine at 6.5 mg/kg, iv after 24 hrs co-treated with COMT inhibitor entacapone; type: ADME, organism-based; parameters: dose 6.5 mg/kg, route intravenous; conditions: read-out: Drug excretion
Lung [39] = test: Drug metabolism in Sprague-Dawley rat lung homogenate assessed as 3'-O-methylated luteolin at 20 uM after 20 to 60 mins; type: ADME, tissue-based; conditions: tissue homogenate

O=c1cc(-c2ccc(O)c(O)c2)oc2cc(O)cc(O)c12 [LUTEOLIN]
half-life [1]: 3.31 h
Drug metabolism (Small intestine [2]): metabolite_not_detected
Retention_time [3]: 15.46 min
Drug metabolism (Small intestine [4]): metabolite_detected
Drug metabolism (Small intestine [5]): metabolite_not_detected
Drug metabolism (Liver [6]): metabolite_detected
Drug metabolism (Kidney [7]): metabolite_detected
Drug metabolism [8]: metabolite_not_detected
AUC(0-inf) [9]: 8180 ng·h/mL
Papp [10]: 5.8 ×10⁻⁶ cm/s
Drug metabolism (Liver [11]): metabolite_not_detected
Drug metabolism [12]: metabolite_detected
Drug metabolism (Lung [13]): metabolite_not_detected
clearance [14]: 13.4 mL/min/kg
Drug absorption [15]: 20%
AUC(0-t) [16]: 7600 ng·h/mL
MRT last [17]: 1.41 h
Drug metabolism (Lung [18]): metabolite_detected
Drug metabolism (Kidney [19]): metabolite_not_detected
AUC(0-t) [20]: 11400 ng·h/mL
dose excreted at 24 h [21]: 5.12%
Drug metabolism (Liver [22]): metabolite_detected
half-life [23]: 3.2 h
Drug metabolism [24]: metabolite_not_detected
Drug metabolism [25]: metabolite_detected
MRT inf [26]: 2.32 h
MRT last [27]: 1.65 h
Vd [28]: 3.74 L/kg
clearance [29]: 8.95 mL/min/kg
MRT inf [30]: 2.68 h
Drug metabolism (Lung [31]): metabolite_not_detected
AUC(0-inf) [32]: 12500 ng·h/mL
Drug metabolism (Kidney [33]): metabolite_detected
Drug metabolism (Small intestine [34]): metabolite_detected
Vd [35]: 2.57 L/kg
Drug metabolism (Kidney [36]): metabolite_not_detected
Drug metabolism (Liver [37]): metabolite_not_detected
dose excreted at 24 h [38]: 7.32%
Drug metabolism (Lung [39]): metabolite_detected
